Source: PMC5483439, “The Effect of Pungent and Tingling Compounds from Piper nigrum L. on Background K^+ Currents” (Frontiers in Pharmacology, 2017)

Columns and labels:
mKCNK9 = target: T1, mKCNK9 (Mus musculus, UniProt Q3LS21); test: Two-electrode voltage clamp on Xenopus oocytes expressing mKCNK9; type: cell-based; conditions: 1–1000 μM
T1 construct: expressed in transfected cells; host or cells: Xenopus laevis oocytes injected with cRNA (subcloned into pSGEM; clone from Dr. D. Bayliss)
Source text: (§1) Human KCNK3 (TASK-1, K2P3.1) cloned into the expression vector pIRES-CD8 was a gift from Dr. Fabrice Duprat (Institut National de la Santé et de la Recherche Médicale, Antipolis, France). Human KCNK18 (hTRESK, K2P18.1), cloned into the plasmid pEXO, was a gift from Dr. P. Enyedi (Semmelweis University, Budapest, Hungary). These plasmids were linearized with the restriction enzymes BamHI and XbaI, respectively, and then used as templates for in vitro transcription. Human KCNK9 (hTASK-3, K2P9.1) cloned into the expression vector pCR4-TOPO, was purchased from Imagenes (Berlin, Germany). The plasmid was linearized with the restriction enzyme SspI, to generate a linear cDNA template for in vitro transcription. mKCNK3 was isolated from mouse heart by standard procedures and inserted into pSGEM. mKCNK9 and mKCNK18 were kindly provided by Dr. D. Bayliss (University of Virginia, Charlottesville, VA, United States) and Prof. Dr. P. Enyedi (Semmelweis University, Budapest, Hungary). Both channels were subcloned into pSGEM. The pSGEM plasmids were subsequently linearized with the restriction enzyme PacI. The capped RNAs were synthesized in the presence of the capping analog m7G(5′)ppp(5′)G using the AmpliCap-T7 Message Maker kit (Epicentre, Madison, WI, United States). The cRNA was dissolved in nuclease-free water to obtain a final concentration of 100 ng/μL. […]

mKCNK3 = target: T2, mKCNK3 (Mus musculus, UniProt O35111); test: Two-electrode voltage clamp on Xenopus oocytes expressing mKCNK3; type: cell-based; conditions: 1–1000 μM
T2 construct: expressed in transfected cells; host or cells: Xenopus laevis oocytes injected with cRNA (plasmid pSGEM)
T2 sequence (O35111 whole entry): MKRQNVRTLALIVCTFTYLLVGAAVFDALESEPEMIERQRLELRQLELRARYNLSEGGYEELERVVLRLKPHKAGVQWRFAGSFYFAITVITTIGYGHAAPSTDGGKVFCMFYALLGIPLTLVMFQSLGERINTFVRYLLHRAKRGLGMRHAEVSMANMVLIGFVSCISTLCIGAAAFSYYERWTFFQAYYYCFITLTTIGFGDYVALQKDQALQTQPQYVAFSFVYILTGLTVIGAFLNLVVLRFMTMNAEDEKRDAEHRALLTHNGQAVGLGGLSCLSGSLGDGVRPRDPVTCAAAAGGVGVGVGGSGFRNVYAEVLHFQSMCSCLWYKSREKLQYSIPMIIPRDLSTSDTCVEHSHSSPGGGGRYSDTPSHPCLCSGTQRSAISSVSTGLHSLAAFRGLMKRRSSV
Source text: as §1

T1 sequence (Q3LS21 whole entry): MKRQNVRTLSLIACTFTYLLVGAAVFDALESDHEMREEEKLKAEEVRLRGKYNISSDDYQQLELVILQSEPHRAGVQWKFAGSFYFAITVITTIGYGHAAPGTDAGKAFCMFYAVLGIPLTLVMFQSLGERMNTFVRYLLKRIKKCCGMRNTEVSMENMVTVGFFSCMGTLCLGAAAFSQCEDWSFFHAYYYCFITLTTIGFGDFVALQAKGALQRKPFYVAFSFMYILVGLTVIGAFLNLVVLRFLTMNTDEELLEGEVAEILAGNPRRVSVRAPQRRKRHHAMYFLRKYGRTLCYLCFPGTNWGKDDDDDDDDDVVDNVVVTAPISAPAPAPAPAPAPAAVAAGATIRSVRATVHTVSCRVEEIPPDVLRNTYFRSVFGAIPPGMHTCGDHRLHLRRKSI

Structure (SMILES): O=C(/C=C/C=C/c1ccc2c(c1)OCO2)N1CCCCC1 [1a, piperine]
- IC50 (mKCNK9): 214 ± 60.1 µM
- IC50 (mKCNK3): 30 ± 2.8 µM
